Measured values published in article PMC5234683 (Psychopharmacology, 2014).
Read-outs that look alike come from different tables or passages of the source.

Key:
[1] = target: Beta2; details: read-out: Ki (nM) Beta2; PDSP database; ref PDSP http://pdsp.med.unc.edu/; cited from earlier work
[2] = target: D3; details: read-out: Ki (nM) D3; PDSP database; ref PDSP http://pdsp.med.unc.edu/; cited from earlier work
[3] = target: 5-HT2B; details: read-out: Ki (nM) 5-HT2B; PDSP database; ref PDSP http://pdsp.med.unc.edu/; cited from earlier work
[4] = target: Alpha1B; details: read-out: Ki (nM) Alpha1B; PDSP database; ref PDSP http://pdsp.med.unc.edu/; cited from earlier work
[5] = target: Sigma-1; details: read-out: Ki (nM) Sigma-1; PDSP database; ref PDSP http://pdsp.med.unc.edu/; cited from earlier work
[6] = target: T1, D4R (Homo sapiens, UniProt P21917); assay: Radioligand competition binding, [3H]-methylspiperone, CHO membranes; details: competition with 0.5 nM [3H]-methylspiperone; n=3
[7] = target: D1-like receptors in bovine striatal membranes (Bos taurus, UniProt Q95136); assay: Bovine striatal radioligand binding assay, [3H]-SCH23390; details: read-out: Ki, one-site fit, 0.5 nM [3H]-SCH23390
[8] = target: T2, D5R (Homo sapiens, UniProt P21918); assay: DiscoveRx PathHunter β-arrestin-2 recruitment assay, CHO-K1 cells; type: cell-based; details: agonist mode; concentrations up to 100 μM
[9] = target: D4; details: read-out: Ki (nM) D4; PDSP database; ref PDSP http://pdsp.med.unc.edu/; cited from earlier work
[10] = target: M5; details: read-out: Ki (nM) M5; PDSP database; ref PDSP http://pdsp.med.unc.edu/; cited from earlier work
[11] = target: DAT; details: read-out: Ki (nM) DAT; PDSP database; ref PDSP http://pdsp.med.unc.edu/; cited from earlier work
[12] = target: Alpha2A; details: read-out: Ki (nM) Alpha2A; PDSP database; ref PDSP http://pdsp.med.unc.edu/; cited from earlier work
[13] = target: Sigma-2; details: read-out: Ki (nM) Sigma-2; PDSP database; ref PDSP http://pdsp.med.unc.edu/; cited from earlier work
[14] = target: CB2; details: read-out: Ki (nM) CB2; PDSP database; ref PDSP http://pdsp.med.unc.edu/; cited from earlier work
[15] = target: Alpha2C; details: read-out: Ki (nM) Alpha2C; PDSP database; ref PDSP http://pdsp.med.unc.edu/; cited from earlier work
[16] = target: D1; details: read-out: Ki (nM) D1; PDSP database; ref PDSP http://pdsp.med.unc.edu/; cited from earlier work
[17] = target: GABA-A; details: read-out: Ki (nM) GABA-A; PDSP database; ref PDSP http://pdsp.med.unc.edu/; cited from earlier work
[18] = target: D2; details: read-out: Ki (nM) D2; PDSP database; ref PDSP http://pdsp.med.unc.edu/; cited from earlier work
[19] = target: M2; details: read-out: Ki (nM) M2; PDSP database; ref PDSP http://pdsp.med.unc.edu/; cited from earlier work
[20] = target: T3, D1R (Homo sapiens, UniProt P21728); details: agonist mode; tested up to 0.1 mM
[21] = target: Alpha1A; details: read-out: Ki (nM) Alpha1A; PDSP database; ref PDSP http://pdsp.med.unc.edu/; cited from earlier work
[22] = target: 5-HT1E; details: read-out: Ki (nM) 5-HT1E; PDSP database; ref PDSP http://pdsp.med.unc.edu/; cited from earlier work
[23] = target: T4, D2R (Homo sapiens, UniProt P14416); type: cell-based; details: agonist mode; 100 μM forskolin
[24] = target: H2; details: read-out: Ki (nM) H2; PDSP database; ref PDSP http://pdsp.med.unc.edu/; cited from earlier work
[25] = target: NET; details: read-out: Ki (nM) NET; PDSP database; ref PDSP http://pdsp.med.unc.edu/; cited from earlier work
[26] = target: 5-HT5; details: read-out: Ki (nM) 5-HT5; PDSP database; ref PDSP http://pdsp.med.unc.edu/; cited from earlier work
[27] = target: 5-HT2A; details: read-out: Ki (nM) 5-HT2A; PDSP database; ref PDSP http://pdsp.med.unc.edu/; cited from earlier work
[28] = target: CB1; details: read-out: Ki (nM) CB1; PDSP database; ref PDSP http://pdsp.med.unc.edu/; cited from earlier work
[29] = target: H3; details: read-out: Ki (nM) H3; PDSP database; ref PDSP http://pdsp.med.unc.edu/; cited from earlier work
[30] = target: 5-HT6; details: read-out: Ki (nM) 5-HT6; PDSP database; ref PDSP http://pdsp.med.unc.edu/; cited from earlier work
[31] = target: T3, D1R; assay: DiscoveRx PathHunter β-arrestin-2 recruitment assay, CHO-K1 cells; type: cell-based; details: agonist mode; concentrations up to 100 μM
[32] = target: H1; details: read-out: Ki (nM) H1; PDSP database; ref PDSP http://pdsp.med.unc.edu/; cited from earlier work
[33] = target: KOR; details: read-out: Ki (nM) KOR; PDSP database; ref PDSP http://pdsp.med.unc.edu/; cited from earlier work
[34] = target: Beta1; details: read-out: Ki (nM) Beta1; PDSP database; ref PDSP http://pdsp.med.unc.edu/; cited from earlier work
[35] = target: D5; details: read-out: Ki (nM) D5; PDSP database; ref PDSP http://pdsp.med.unc.edu/; cited from earlier work
[36] = target: MOR; details: read-out: Ki (nM) MOR; PDSP database; ref PDSP http://pdsp.med.unc.edu/; cited from earlier work
[37] = target: H4; details: read-out: Ki (nM) H4; PDSP database; ref PDSP http://pdsp.med.unc.edu/; cited from earlier work
[38] = target: 5-HT1D; details: read-out: Ki (nM) 5-HT1D; PDSP database; ref PDSP http://pdsp.med.unc.edu/; cited from earlier work
[39] = target: T4, D2R; assay: Radioligand competition binding, [3H]-methylspiperone, HEK293 membranes; details: competition with 0.5 nM [3H]-methylspiperone; n=3
[40] = target: DOR; details: read-out: Ki (nM) DOR; PDSP database; ref PDSP http://pdsp.med.unc.edu/; cited from earlier work
[41] = target: 5-HT3; details: read-out: Ki (nM) 5-HT3; PDSP database; ref PDSP http://pdsp.med.unc.edu/; cited from earlier work
[42] = target: T1, D4R; assay: DiscoveRx PathHunter β-arrestin-2 recruitment assay, CHO-K1 cells; type: cell-based; details: agonist mode; concentrations up to 100 μM
[43] = target: 5-HT1B; details: read-out: Ki (nM) 5-HT1B; PDSP database; ref PDSP http://pdsp.med.unc.edu/; cited from earlier work
[44] = target: D1R–D2R heteromer (Homo sapiens, UniProt P14416+P21728); assay: D1R–D2R-mediated calcium mobilization assay, co-transfected HEK293T cells; type: cell-based
[45] = target: T4, D2R; assay: DiscoveRx PathHunter β-arrestin-2 recruitment assay, CHO-K1 cells; type: cell-based; details: agonist mode; concentrations up to 100 μM
[46] = target: 5-HT1A; details: read-out: Ki (nM) 5-HT1A; PDSP database; ref PDSP http://pdsp.med.unc.edu/; cited from earlier work
[47] = test system: 5-HT1A receptor; details: ref Gao et al. 2011; Guo et al. 2009; cited from earlier work
[48] = target: T5, D3R (Homo sapiens, UniProt P35462); assay: DiscoveRx PathHunter β-arrestin-2 recruitment assay, CHO-K1 cells; type: cell-based; details: agonist mode; concentrations up to 100 μM
[49] = target: SERT; details: read-out: Ki (nM) SERT; PDSP database; ref PDSP http://pdsp.med.unc.edu/; cited from earlier work
[50] = target: 5-HT2C; details: read-out: Ki (nM) 5-HT2C; PDSP database; ref PDSP http://pdsp.med.unc.edu/; cited from earlier work
[51] = target: T2, D5R; assay: DiscoveRx HitHunter cAMP accumulation assay, HEK293 cells; type: cell-based; details: agonist mode
[52] = target: Alpha2B; details: read-out: Ki (nM) Alpha2B; PDSP database; ref PDSP http://pdsp.med.unc.edu/; cited from earlier work
[53] = target: T5, D3R; assay: Radioligand competition binding, [3H]-methylspiperone, HEK293 membranes; details: competition with 0.5 nM [3H]-methylspiperone; n=3
[54] = ref Sun et al. (2009); cited from earlier work
[55] = target: T3, D1R; assay: Radioligand competition binding, [3H]-SCH23390, HEK293 membranes; details: competition with 0.5 nM [3H]-SCH23390; single site; n=3
[56] = target: T3, D1R; assay: HTRF cAMP assay; type: cell-based; details: agonist mode; Supplemental Fig. 1
[57] = target: 5-HT7; details: read-out: Ki (nM) 5-HT7; PDSP database; ref PDSP http://pdsp.med.unc.edu/; cited from earlier work

For COc1cc2c(cc1O)[C@@H]1Cc3ccc(O)c(OC)c3CN1CC2 [(−)-stepholidine, (−)-Stepholidine], the Ki [1] is listed as > 10000 nM, the Ki [2] is listed as 30.1 nM and the Ki [3] is listed as 226 nM. For the same compound, the Ki [4] was > 10000 nM, the Ki [5] was 1600 nM and the Ki [6] was 1.45 µM. For the same compound, the Ki ([7]; control, absence of GTPγS) was 0.016 ± 0.0024 µM, the Ki ([7]; presence of 1 mM GTPγS) was 0.0192 ± 0.0044 µM and the “agonist activity, β-arrestin-2 recruitment” value [8] was “failed to produce any measurable recruitment of β-arrestin-2”. The Ki [9] was 3750 nM, the Ki [10] was > 10000 nM and the Ki [11] was > 10000 nM. For the same compound, the Ki [12] was > 10000 nM, the Ki [13] was 53.4 nM and the Ki [14] was > 10000 nM. For the same compound, the Ki [15] was 214 nM, the Ki [16] was 5.9 nM and the Ki [17] was > 10000 nM. For the same compound, the Ki [18] was 974 nM, the Ki [19] was > 10000 nM and the “agonist activity, cAMP accumulation” value [20] was “has no effect on cAMP accumulation”. The Ki [21] was > 10000 nM, the Ki [22] was > 10000 nM and the “agonist activity, inhibition of forskolin-stimulated cAMP accumulation” value [23] was “has no effect on inhibiting cAMP accumulation”. For the same compound, the Ki [24] was > 10000 nM, the Ki [25] was > 10000 nM and the Ki [26] was > 10000 nM. For the same compound, the Ki [27] was > 10000 nM, the Ki [28] was > 10000 nM and the Ki [29] was > 10000 nM. The Ki [30] was > 10000 nM, the “agonist activity, β-arrestin-2 recruitment” value [31] was “failed to produce any measurable recruitment of β-arrestin-2” and the Ki [32] was > 10000 nM. The Ki [33] was > 10000 nM, the Ki [34] was > 10000 nM and the Ki [35] was 4.4 nM. The Ki [36] was > 10000 nM, the Ki [37] was > 10000 nM and the Ki [38] was > 10000 nM. For the same compound, the Ki [39] was 0.0116 ± 0.0042 µM, the Ki [40] was > 10000 nM and the Ki [41] was > 10000 nM. For the same compound, the “agonist activity, β-arrestin-2 recruitment” value [42] was “failed to produce any measurable recruitment of β-arrestin-2”, the Ki [43] was 6980 nM and the “agonist activity, Ca2+ mobilization” value ([44]; agonist mode, concentrations up to 50 μM) was “no Ca^2+ mobilization was detected”. For the same compound, the IC50 ([44]; read-out: IC50, inhibition of dopamine-stimulated calcium mobilization, EC80 (1 μM) dopamine, n=3) was 0.0193 ± 0.0037 µM, the “agonist activity, β-arrestin-2 recruitment” value [45] was “failed to produce any measurable recruitment of β-arrestin-2” and the Ki [46] was 143 nM. For the same compound, the “functional profile at the 5-HT1A receptor” value [47] was “partial agonist”, the “agonist activity, β-arrestin-2 recruitment” value [48] was “failed to produce any measurable recruitment of β-arrestin-2” and the Ki [49] was > 10000 nM. The Ki [50] was > 10000 nM, the “agonist activity, cAMP accumulation” value [51] was “failed to produce any measurable cAMP accumulation” and the Ki [52] was 6880 nM. For the same compound, the Ki [53] was 0.0234 ± 0.0087 µM, the metabolism after administration [54] was “rapidly metabolized within minutes of administration” and the Ki [55] was 0.0051 ± 0.0023 µM. For the same compound, the “agonist activity, cAMP accumulation (HTRF)” value [56] was “did not stimulate D1R-mediated cAMP accumulation” and the Ki [57] was > 10000 nM.
